“And” between values parts separate entries of the source, which are not always exact repeats. Identical values can stand only once.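 Each compound was tested at five concentrations against cells in 96-well plates for 48 hours. At the GI50, growth is halved. TGI marks complete inhibition of growth.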

Common to all, as to assay: NCI tumour cell line growth inhibition, 48 h
In assay [1] the test system is SF-539 CNS.
Assay [2] has as its system HCT-15 colon.
Assay [3] has as its system CAKI-1 renal.
Assay [4] deals with SF-295 CNS.
The test system of assay [5] is SF-268 CNS.
The subject of assay [6] is OVCAR-4 ovarian.
The subject of assay [7] is OVCAR-8 ovarian.
For assay [8], the system named is IGROV1 ovarian.
Assay [9] relates to SK-OV-3 ovarian.
The subject of assay [10] is M14 melanoma.

Consider `FC(F)(F)c1cc(NC2=NCCN=C(Nc3cc(C(F)(F)F)cc(C(F)(F)F)c3)SS2)cc(C(F)(F)F)c1`, for which the GI50 is 5.21 µM in assay [1]; 3.33 µM in [2]; 3.12 µM in [3]; 3.08 µM in [4]; 5.68 µM in [5]; 3.65 µM in assay [6]. The GI50 is 3.7 µM in [7], 6.04 µM in [8], 8.63 µM in [9] and 6.87 µM in assay [10]. Besides, the TGI came to 18.3 µM in assay [1]; 14.2 µM in assay [2]; 13.1 µM in [3]; 12.2 µM in assay [4]; 19.8 µM in assay [5]; 17 µM in assay [6]. The TGI in [7] amounted to 16.9 µM; in assay [8], 26.3 µM; in assay [9], 54.3 µM; in assay [10], 26.6 µM.

For `N#Cc1ccc2c(c1)C(=O)c1c-2n(CCCN=[N+]=[N-])c(=O)c2cc([N+](=O)[O-])ccc12`, the GI50 in assay [1] is > 50 µM; in [2], > 50 µM; in assay [3], 9.86 µM; in assay [4] it was 8 µM; in assay [5], 5.03 µM; in [6], > 50 µM. Further, the GI50 in [7] was > 50 µM; in [8] it was 12.4 µM; in [9], > 50 µM; in assay [10], 29.9 µM. Further, the TGI in assay [1], in assay [2], in [3], in assay [4], in assay [5] and in assay [6] was > 50 µM in each case. The TGI in [7], in assay [8], in assay [9] and in assay [10] was > 50 µM in each case.

As for `Cc1cc(S(=O)(=O)Nc2nc3cc(-c4ccsc4)sc3c(=O)n2N)c(S)cc1Cl`, the GI50 in assay [1] was 67.4 µM; in assay [2], 59.2 µM; in assay [3], > 100 µM; in assay [4] it was 29.7 µM; in [5], 35.7 µM; in assay [6], 69.6 µM. The GI50 was 68.1 µM in [7], > 100 µM in assay [8], 88.6 µM in [9] and > 100 µM in assay [10]. Also, the TGI in assay [1], in [2], in assay [3], in assay [4], in [5] and in assay [6] was > 100 µM throughout. Further, the TGI in [7], in assay [8], in assay [9] and in assay [10] was > 100 µM throughout.

Consider `CC(C)(F)C[C@H](N[C@@H](c1ccc(-c2ccc(S(C)(=O)=O)cc2)cc1)C(F)(F)F)C(=O)NC1(C#N)CC1`, for which the GI50 was 11.8 µM and 23.1 µM in assay [1]; > 100 µM in assay [2]; 18.7 µM and 27.4 µM in assay [3]; 18.8 µM and 17.9 µM in assay [4]; 22 µM and 18.8 µM in assay [5]; 9.47 µM and 19.5 µM in [6]. Further, the GI50 in [7] is 18 µM and 19.5 µM; in assay [8], 33.2 µM and 30.2 µM; in assay [9], 23 µM and 27.5 µM; in assay [10] it was > 100 µM. The TGI in [1] was 31.8 µM and 53.2 µM; in assay [2], > 100 µM; in assay [3], 55 µM and > 100 µM; in [4], 55 µM and 50.9 µM; in [5] it was 55 µM and 48.9 µM; in [6], 42.8 µM and 47.4 µM. The TGI in assay [7] was 55 µM and 63.8 µM; in assay [8], 55 µM and 91.2 µM; in [9], 55 µM and 70.7 µM; in [10], > 100 µM.

`c1ccc(-c2cnc3nc4ccccc4nc3n2)cc1`: the TGI was 15.8 µM in assay [1]; > 100 µM in [2]; 3.53 µM in [3]; 25.3 µM in assay [4]; 17.8 µM in assay [5]; 19.5 µM in [6]. Also, the TGI in [7] turned out to be 6.8 µM; in assay [8] it was 17.5 µM; in [9] it was 9.12 µM; in [10] it was 25.6 µM.

Consider `O=C1C2=C(c3ccccc31)C(c1ccc(F)cc1)N1C(=O)CCSC1=N2` (centres undefined), for which the TGI in assay [1], in [2], in [3], in assay [4], in assay [5] and in [6] was > 100 µM throughout. The TGI in assay [7], in assay [8], in assay [9] and in assay [10] was > 100 µM throughout.

For the compound `COC(=O)/C(=N/O)C(C(=O)OC)C(=O)C(=O)Nc1c(Cl)cc(C)cc1S(=O)(=O)O` (centres undefined), the TGI in [1], in [2], in [3], in [4], in assay [5] and in assay [6] was > 100 µM each time. The TGI in [7], in [8], in assay [9] and in assay [10] was > 100 µM throughout.

Regarding `Cc1ccc(S(=O)(=O)c2ccsc2N)cc1`, the GI50 was > 100 µM in assay [1]; > 100 µM in [2]; > 100 µM in assay [3]; > 100 µM in [4]; 97.7 µM in assay [5]; 58.3 µM in [6]. Also, the GI50 in [7], in assay [8], in assay [9] and in assay [10] was > 100 µM in each case. The TGI in assay [1], in [2], in [3], in assay [4], in assay [5] and in assay [6] was > 100 µM throughout. Besides, the TGI in assay [7], in assay [8], in [9] and in assay [10] was > 100 µM in each case.

On to `O=C1C2=C(c3ccccc31)C(c1ccc(Cl)cc1)NC(=S)N2` (centres undefined), for which the TGI in [1] is 29.6 µM; in assay [2], 35.9 µM; in assay [3], 78.3 µM; in [4], 29.9 µM; in assay [5], 40.1 µM; in assay [6], 37.8 µM. Further, the TGI is 38.4 µM in [7], 42.6 µM in [8], > 100 µM in assay [9] and 54.6 µM in assay [10].

Consider `O=C(/C=C/c1ccccc1)CCc1c(O)c2ccccc2oc1=O`, for which the TGI in [1], in assay [2], in [3], in assay [4], in assay [5] and in assay [6] was > 100 µM each time. Further, the TGI in assay [7], in assay [8], in assay [9] and in [10] was > 100 µM in each case.

For `CC(=O)O[C@H]1C(=O)[C@@]2(C)C(C(OC(=O)c3ccccc3)[C@]3(O)CC(OC(=O)C(O)C(NC(=O)c4ccccc4)c4ccc(C)cc4)C(C)=C1C3(C)C)[C@]1(OC(C)=O)CO[C@@H]1C[C@@H]2O` (some centres undefined), the TGI in assay [1] is 0.0652 µM; in assay [2], 8.01 µM; in assay [3], 12.1 µM; in assay [5], > 25 µM; in [6], > 25 µM; in assay [7], 1.01 µM. In addition, the figures for the TGI in [8], in assay [9] and in assay [10] were 19 µM, 0.0962 µM and 0.105 µM, respectively.

For the compound `COc1cc2c3c(c1OC)Oc1ccc(cc1)CC1c4c(cc(OC)c(OC)c4Oc4ccc(cc4)CC3N(C)CC2)CCN1C` (centres undefined), the TGI in assay [1] was 28 µM; in assay [3], > 100 µM; in assay [4], 36.1 µM; in assay [5], 64.5 µM; in assay [6], 36.3 µM; in [7], 60 µM. In addition, the TGI in assay [8] came out at 67.8 µM; in assay [9] it was 84.1 µM; in assay [10], 33.2 µM.

On to `C[C@H]1CCC/C=C/[C@@H]2C[C@H](O)C[C@H]2[C@H](O)[C@@H](SC2OC(CO)C(O)C(O)C2O)CC(=O)O1` (some centres undefined), for which the GI50 in assay [1] was 31.9 µM; in assay [2] it was > 100 µM; in assay [3] it was > 100 µM; in assay [4], > 100 µM; in assay [6], 54.1 µM; in assay [7], 35 µM. The GI50 was > 100 µM in assay [8], > 100 µM in [9] and 61.3 µM in assay [10]. The TGI in assay [1], in assay [2], in assay [3], in assay [4], in assay [6] and in assay [7] was > 100 µM in each case. In addition, the TGI in assay [8], in [9] and in assay [10] was > 100 µM in each case.

As for `COc1ccc(S(=O)(=O)n2c3ccccc3n3ncc(-c4nnc(C)o4)c23)cc1`, the GI50 in [1] was 0.361 µM; in assay [2], 0.424 µM; in assay [3], 0.449 µM; in assay [4], 0.37 µM; in assay [5], 3.11 µM; in assay [6], 12.7 µM. Moreover, the GI50 in [7] was 1.27 µM; in assay [8] it was 0.634 µM; in assay [9], 0.598 µM; in assay [10], 0.373 µM. The TGI in assay [1] is 7.92 µM; in assay [2], > 75.8 µM; in assay [3], > 100 µM; in [4], 14.4 µM; in [5], > 74.1 µM; in assay [6], > 100 µM. For the same compound, the TGI in assay [7] is > 100 µM; in [8], > 67.1 µM; in assay [9], > 100 µM; in [10], 18.7 µM.

Take `COC(=O)c1nn(C(=N)c2ccc(Cl)cc2)c2c1CCCCC2`: the TGI in [1], in [2], in assay [3], in assay [4], in assay [5] and in assay [6] was > 100 µM in each case. In addition, the TGI in assay [8], in [9] and in assay [10] was > 100 µM throughout.

For `COC(=O)C1=C(c2cc(OC)c(OC)c(OC)c2)O[C@H](c2ccc3c(c2)OCO3)[C@H]1COC(C)=O`, the TGI is 91.1 µM in assay [1]; > 100 µM in assay [2]; > 100 µM in [3]; 41 µM in [4]; > 100 µM in assay [6]; > 100 µM in assay [7]. The TGI in [8] was > 100 µM; in assay [9], 52.1 µM; in assay [10], 43.3 µM.

For `CCCNc1cccc(-n2ncc3c(N/N=C/c4ccncc4)ncnc32)c1`, the GI50 was > 8.45 µM in [1]; 1.68 µM in assay [2]; 1.1 µM in [3]; 3.58 µM in assay [4]; 8.24 µM in assay [5]; > 9.88 µM in [6]. In addition, the figures for the GI50 in assay [7], in assay [9] and in assay [10] were 11.7 µM, 6.92 µM and 1.69 µM, respectively. Also, the TGI in assay [1], in assay [2], in assay [3], in [4], in assay [5] and in [6] was > 25 µM throughout. The TGI in [7], in assay [9] and in [10] was > 25 µM in each case.

In the case of `CC(=O)OCC(OC(C)=O)C(OC(C)=O)C(OC(C)=O)C(=O)CNn1c(-c2ccccc2Cl)nc2ccc(Br)cc2c1=O` (centres undefined), the TGI in assay [1], in [2], in assay [3], in assay [4], in [5] and in assay [6] was > 100 µM each time. Besides, the TGI in assay [7], in assay [9] and in assay [10] was > 100 µM each time.

Take `Cn1c(O)c(N=NC(N)=S)c2ccccc21`: the GI50 in [1] is > 100 µM; in assay [2] it was 44.6 µM; in [3], 23.6 µM; in [4], 27.1 µM; in [5], 62.8 µM; in [6], 82.1 µM. Further, the GI50 is 54.8 µM in [7], 66.8 µM in [9] and 95.9 µM in assay [10]. For the same compound, the TGI in [1] is > 100 µM; in assay [2] it was > 100 µM; in [3], 91.7 µM; in [4] it was > 100 µM; in assay [5], > 100 µM; in assay [6] it was > 100 µM. The TGI in [7], in assay [9] and in assay [10] was > 100 µM throughout.

For the origin of these results see PubChem BioAssay (NCI).
